Measurements as given in patent US11207320B2, “Compositions and methods for cancer expressing PDE3A or SLFN12” (The Broad Institute, Inc., priority 2015, dated 2021).

What was measured:
A549 cells = assay: Compound sensitivity testing in cell lines (48 h viability); type: cell-based; details: Homo sapiens; A549, 48 hours
Description: (§1) 1500 NCI-H1734 or 1000 A549 cells were plated in a 384-well plate in 40 μl of RPMI supplemented with 10% Fetal Bovine Serum and 1% Pen/Strep. 24 hours after plating, a compound-library of 1924 small molecules was added at a concentration of 10 μM. Staurosporine was used a positive control for cytotoxicity at a concentration of 10 μM, and DMSO was used a negative control at a concentration of 1%. All compounds were incubated for 48 hours with indicated small molecules. After 48 hours, 384-well plates were removed from the incubator and allowed to cool to room temperature for 20 minutes. Cell viability was assessed by adding 40 μl of a 25% CELLTITERGLO® (Promega) in PBS with a THERMO COMBI™ or multichannel-pipette and incubated for 10 minutes. The luminescence signal was read using a Perkin-Elmer EnVision. Viability percentage was calculated by normalizing to DMSO controls.
(§2) 1000 HeLa (DMEM), 1000 A549 (RPMI), 500 MCF-7 (DMEM), 4000 PC3 (F12-K), 1000 NCI-H2122 (RPMI) or 1500 NCI-H1563 (RPMI) cells were plated in a 384-well plate in 40 μl of corresponding growth media supplemented with 10% Fetal Bovine Serum. 24 hours after plating, indicated compounds were added at indicated concentrations and incubated for 48 hours. Cell viability was assessed as described in Compound library screening in NCI-H1734 and A549 cell lines.

MCF7 cells = assay: as above; type: cell-based; details: Homo sapiens; MCF7, 48 hours
Description: as §1, §2

NCI-H2122 cells = assay: as above; type: cell-based; details: Homo sapiens; NCI-H2122, 48 hours
Description: as §1, §2

NCI-H1563 cells = assay: as above; type: cell-based; details: Homo sapiens; NCI-H1563, 48 hours
Description: as §1, §2

PC3 cells = assay: as above; type: cell-based; details: Homo sapiens, PC-3; PC3, 48 hours
Description: as §1, §2

PDE3A = PDE3A (Homo sapiens, UniProt Q14432); assay: Immunoprecipitation of PDE3A in HeLa cells with iTRAQ/MS proteomics; parameters: Immunoprecipitation of endogenous PDE3A in HeLa cells; endogenous in cells; host or cells: HeLa; details: 10 μM, four hours
Description: The dependence of 6-(4-(diethylamino)-3-nitrophenyl)-5-methyl-4,5-dihydropyridazin-3(2H)-one (DNMDP) cytotoxicity on phosphodiesterase 3A (PDE3A) protein abundance indicated a possible mechanism similar to that recently observed for lenalidomide, which acts by a neomorphic or hypermorphic mechanism by stabilizing an interaction between cereblon and IKAROS Family Zinc Finger 1 (IKZF1) and IKZF3 (Krönke et al., Science 343, 301-305, 2014; Lu et al., Science 343, 305-309, 2014). […] The protein complexes in which PDE3A resides were characterized under normal conditions, and it was examined how these complexes change when PDE3A is bound to DNMDP or the non-cytotoxic PDE3 inhibitor trequinsin. PDE3A and interacting proteins from Hela cells were immunoprecipitated in the presence of DNMDP and trequinsin followed by labeling with isobaric stable isotope tags for relative abundance and quantitation by mass spectrometry (iTRAQ/MS, FIG. 13A). […]
Desalted peptides were labeled with isobaric tags for relative and absolute quantification (iTRAQ)-reagents according to the manufacturer's instructions (AB Sciex, Foster City, Calif.). […]
Reconstituted peptides were separated on an online nanoflow EASY-NLC™ 1000 UHPLC system (Thermo Fisher Scientific) and analyzed on a benchtop Orbitrap Q EXACTIVE™ mass spectrometer (Thermo Fisher Scientific). […]

PDE3A(677-1141) = target: T1, PDE3A(677-1141) (Homo sapiens, UniProt Q14432); assay: Differential scanning fluorimetry (DSF) binding; details: 5 μM protein, 100 μM compound
T1 construct: purified PDE3A catalytic domain, PDE3A(677-1141)
Description: Binding buffer: 20 mM Hepes pH 7.4, 100 μM TCEP, 1 mM MgCl2, 150 mM NaCl.

T1 sequence (Q14432 677-1141): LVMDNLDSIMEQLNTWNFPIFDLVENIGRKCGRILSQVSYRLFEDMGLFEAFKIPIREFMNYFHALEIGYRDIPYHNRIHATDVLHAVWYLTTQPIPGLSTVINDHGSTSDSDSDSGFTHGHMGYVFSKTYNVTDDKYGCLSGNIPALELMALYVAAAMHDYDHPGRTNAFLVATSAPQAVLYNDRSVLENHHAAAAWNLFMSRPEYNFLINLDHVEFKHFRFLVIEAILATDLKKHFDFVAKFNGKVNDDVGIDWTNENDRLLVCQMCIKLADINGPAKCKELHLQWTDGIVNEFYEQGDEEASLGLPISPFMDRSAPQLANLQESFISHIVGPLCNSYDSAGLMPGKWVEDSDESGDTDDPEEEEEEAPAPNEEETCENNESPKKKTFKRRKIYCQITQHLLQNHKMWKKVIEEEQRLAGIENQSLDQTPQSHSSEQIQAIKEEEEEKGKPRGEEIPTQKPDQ
PDE3A, sequence (Q14432 whole entry): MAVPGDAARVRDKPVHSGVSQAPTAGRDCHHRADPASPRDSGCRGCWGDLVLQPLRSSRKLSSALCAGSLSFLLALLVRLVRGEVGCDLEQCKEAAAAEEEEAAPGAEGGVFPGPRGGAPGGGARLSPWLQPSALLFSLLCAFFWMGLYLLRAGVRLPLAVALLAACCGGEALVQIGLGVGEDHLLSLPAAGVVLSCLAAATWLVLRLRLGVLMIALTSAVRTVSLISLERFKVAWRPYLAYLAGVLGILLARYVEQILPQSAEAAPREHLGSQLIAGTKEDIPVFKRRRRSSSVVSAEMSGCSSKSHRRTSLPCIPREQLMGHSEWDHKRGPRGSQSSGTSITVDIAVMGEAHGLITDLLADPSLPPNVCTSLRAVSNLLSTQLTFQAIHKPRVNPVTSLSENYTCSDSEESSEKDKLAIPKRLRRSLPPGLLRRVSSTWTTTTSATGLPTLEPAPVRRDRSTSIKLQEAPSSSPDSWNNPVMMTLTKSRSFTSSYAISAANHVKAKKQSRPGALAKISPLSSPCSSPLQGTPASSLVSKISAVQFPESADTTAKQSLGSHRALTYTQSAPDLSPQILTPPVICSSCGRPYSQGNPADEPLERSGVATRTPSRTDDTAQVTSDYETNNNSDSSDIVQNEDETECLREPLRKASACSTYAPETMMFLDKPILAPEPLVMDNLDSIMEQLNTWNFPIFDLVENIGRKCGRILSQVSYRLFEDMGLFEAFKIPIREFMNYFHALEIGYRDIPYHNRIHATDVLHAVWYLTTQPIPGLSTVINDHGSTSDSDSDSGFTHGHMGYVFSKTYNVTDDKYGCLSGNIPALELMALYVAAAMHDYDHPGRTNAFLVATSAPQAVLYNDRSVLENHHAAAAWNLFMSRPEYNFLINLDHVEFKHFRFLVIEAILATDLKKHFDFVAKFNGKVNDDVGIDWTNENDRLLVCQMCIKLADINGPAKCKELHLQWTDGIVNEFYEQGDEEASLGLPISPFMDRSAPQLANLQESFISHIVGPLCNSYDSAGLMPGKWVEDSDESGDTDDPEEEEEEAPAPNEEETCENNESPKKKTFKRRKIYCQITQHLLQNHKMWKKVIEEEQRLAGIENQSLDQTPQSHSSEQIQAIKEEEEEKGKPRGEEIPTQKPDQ

Row | EC50 (A549 cells) [nM] | EC50 (MCF7 cells) [nM] | EC50 (NCI-H2122 cells) [nM] | EC50 (NCI-H1563 cells) [nM] | EC50 (PC3 cells) [nM] | enrichment of SIRT7 and SLFN12 in PDE3A immunoprecipitates (PDE3A) | Tm (° C.) (PDE3A(677-1141)) [°C] | ΔTm at 100 µM (PDE3A(677-1141)) [°C] | SMILES
1 | > 1000 | > 1000 | 10 to 100 | 10 to 100 | > 1000 | specifically enriched | 58.4 ± 0.0 | 6 | CCN(CC)c1ccc(C2=NNC(=O)CC2C)cc1[N+](=O)[O-] (centres unmarked) [DNMDP, 6-(4-(diethylamino)-3-nitrophenyl)-5-methyl-4,5-dihydropyridazin-3(2H)-one]
2 | – | – | – | – | – | not observed | 66.2 ± 0.0 | 14.2 | COc1cc2c(cc1OC)-c1c/c(=N\c3c(C)cc(C)cc3C)n(C)c(=O)n1CC2 [trequinsin, 9,10-dimethoxy-3-methyl-2-(2,4,6-trimethylphenyl)imino-6,7-dihydropyrimido[6,1-a]isoquinolin-4-one]
